Drawing on ChEMBL document CHEMBL4152189, “Incorporation of nitric oxide donor into 1,3-dioxyxanthones leads to synergistic anticancer activity” (Eur J Med Chem, 2018), this text covers IC50 for 55 compounds.

Holding throughout (format): functional, cell-based
One test relates to MDA-MB-231. Kind of test: Growth inhibition of human MDA-MB-231 cells after 24 hrs by MTT assay. Particulars: MDA-MB-231, 24 h. In general terms: Tetrazolium dyes change colour on reduction, which living cells bring about.
Another test relates to HepG2. Kind of test: Growth inhibition of human HepG2 cells after 24 hrs by MTT assay. Particulars: HepG2, 24 h.
For another test, the system named is MCF7. Put plainly: Growth inhibition of human MCF7 cells after 24 hrs by MTT assay. Particulars: MCF7, 24 h.

As usually defined, the IC50 is the point on the concentration scale where inhibition reaches its midpoint. Low values mean higher potency, high ones lower potency. As to `COc1cccc2oc3cc(OCCCO[N+](=O)[O-])cc(O)c3c(=O)c12`, the IC50 was found to be 9.68 µM in the test with MDA-MB-231, 13.6 µM in the test with HepG2 and 102 µM with MCF7.
`O=c1c2ccc(O)cc2oc2cc(OCCCCCCCO[N+](=O)[O-])cc(O)c12`: the results for the 50% inhibitory concentration (IC50) with MDA-MB-231, in the test with HepG2 and in the test on MCF7 were 51.5 µM, 76.2 µM and over 200 µM, respectively.
The matching figures for `O=c1c2cc(Cl)ccc2oc2cc(OCCCCCCCO[N+](=O)[O-])cc(O)c12`: 10.2 µM, 8.13 µM and 30.8 µM.
The corresponding values for `O=c1c2cc(Br)ccc2oc2cc(OCCCCCO[N+](=O)[O-])cc(O)c12` are 11.1 µM, 2.65 µM and 73.2 µM.
With `O=c1c2ccccc2oc2cc(OCCCCO[N+](=O)[O-])cc(O)c12`, the IC50 in the test on MDA-MB-231 was 56.6 µM; in the test on HepG2, 6.55 µM; in the test on MCF7, over 200 µM.
As to `O=c1c2ccccc2oc2cc(OCCCCCCO[N+](=O)[O-])cc(O)c12`, the figures for the IC50 in the test with MDA-MB-231, with HepG2 and in the test with MCF7 were 23.5 µM, 3.17 µM and 93.1 µM, respectively.
In the case of `O=c1c2cc(O)ccc2oc2cc(OCCCCCO[N+](=O)[O-])cc(O)c12`, the half-inhibitory concentration (IC50) was 44.6 µM in the test with MDA-MB-231, 9.91 µM with HepG2 and 91.2 µM in the test with MCF7.
Regarding `COc1cc2oc3cc(OCCCO[N+](=O)[O-])cc(O)c3c(=O)c2cc1OC`, the IC50 with MDA-MB-231 was 112 µM; in the test on HepG2 it was 53.6 µM; in the test on MCF7, over 200 µM.
On to `Cc1ccc2c(=O)c3c(O)cc(OCCCCO[N+](=O)[O-])cc3oc2c1`, for which the values for the half-inhibitory concentration (IC50) in the test on MDA-MB-231, with HepG2 and in the test on MCF7 were 62.9 µM, 10.6 µM and 47.7 µM, respectively.
For the compound `O=c1c2cc(O)ccc2oc2cc(O)cc(O)c12`, the 50% inhibitory concentration (IC50) with MDA-MB-231, in the test with HepG2 and with MCF7 was over 200 µM throughout.
Turning to `O=c1c2cc(Br)ccc2oc2cc(OCCCCCCO[N+](=O)[O-])cc(O)c12`, the concentration for half-maximal inhibition (IC50) in the test with MDA-MB-231 is 15 µM; in the test on HepG2 it was 1.21 µM; in the test with MCF7 it was 43.5 µM.
Consider `O=c1c2cc(Br)ccc2oc2cc(OCCCO[N+](=O)[O-])cc(O)c12`, for which the half-inhibitory concentration (IC50) is 43.6 µM with MDA-MB-231, 14 µM in the test with HepG2 and over 200 µM in the test with MCF7.
As for `O=c1c2ccc(O)cc2oc2cc(OCCCCCCO[N+](=O)[O-])cc(O)c12`, the IC50 in the test with MDA-MB-231 is 10.6 µM; in the test on HepG2 it was 26.4 µM; in the test with MCF7, over 200 µM.
Turning to `COc1ccc2oc3cc(OCCCCCCO[N+](=O)[O-])cc(O)c3c(=O)c2c1`, the 50% inhibitory concentration (IC50) in the test with MDA-MB-231 was 3.05 µM; with HepG2, 13.6 µM; in the test with MCF7 it was 41.1 µM.
Regarding `Cc1ccc2c(=O)c3c(O)cc(OCCCO[N+](=O)[O-])cc3oc2c1`, the values for the IC50 in the test on MDA-MB-231, in the test on HepG2 and with MCF7 were 78.4 µM, 12.8 µM and 62.8 µM, respectively.
For the compound `O=c1c2ccccc2oc2cc(OCCCCCO[N+](=O)[O-])cc(O)c12`, the half-inhibitory concentration (IC50) in the test with MDA-MB-231 was 40.7 µM; in the test on HepG2, 4.08 µM; in the test with MCF7, over 200 µM.
For the compound `O=c1c2cc(O)ccc2oc2cc(OCCCO[N+](=O)[O-])cc(O)c12`, the figures for the IC50 in the test with MDA-MB-231, with HepG2 and in the test with MCF7 were 134 µM, 33 µM and over 200 µM, respectively.
Consider `O=c1c2ccc(O)cc2oc2cc(O)cc(O)c12`, for which the IC50 in the test on MDA-MB-231, with HepG2 and in the test with MCF7 was over 200 µM each time.
With `COc1cc2oc3cc(O)cc(O)c3c(=O)c2cc1OC`, the IC50 in the test with MDA-MB-231 is over 200 µM; with HepG2, 123 µM; in the test on MCF7 it was over 200 µM.
With `O=c1c2cc(Cl)ccc2oc2cc(OCCCO[N+](=O)[O-])cc(O)c12`, the IC50 with MDA-MB-231 was 27.8 µM; with HepG2, 17.4 µM; with MCF7, 53.4 µM.
Consider `O=c1c2cc(O)ccc2oc2cc(OCCCCCCO[N+](=O)[O-])cc(O)c12`, for which the values for the IC50 in the test with MDA-MB-231, in the test on HepG2 and with MCF7 were 18.5 µM, 11.4 µM and 53.7 µM, respectively.
On to `COc1cc2oc3cc(OCCO[N+](=O)[O-])cc(O)c3c(=O)c2cc1OC`, for which the figures for the IC50 with MDA-MB-231, in the test on HepG2 and with MCF7 were 130 µM, 91.7 µM and over 200 µM, respectively.
For the compound `O=c1c2cc(O)ccc2oc2cc(OCCCCCCCO[N+](=O)[O-])cc(O)c12`, the half-inhibitory concentration (IC50) turned out to be 74.3 µM in the test on MDA-MB-231, 15.2 µM with HepG2 and 112 µM in the test with MCF7.
`COc1cc2oc3cc(OCCCCO[N+](=O)[O-])cc(O)c3c(=O)c2cc1OC`: the IC50 with MDA-MB-231 is 87.4 µM; in the test on HepG2, 21.2 µM; with MCF7, over 200 µM.
On to `O=c1c2cc(Br)ccc2oc2cc(OCCCCO[N+](=O)[O-])cc(O)c12`, for which the figures for the IC50 with MDA-MB-231, in the test on HepG2 and in the test with MCF7 were 11.2 µM, 10.1 µM and 42.9 µM, respectively.
Consider `O=c1c2cc(Cl)ccc2oc2cc(OCCCCCO[N+](=O)[O-])cc(O)c12`, for which the concentration for half-maximal inhibition (IC50) with MDA-MB-231 stood at 7.79 µM; in the test on HepG2, 5.32 µM; in the test with MCF7, 25.1 µM.
The corresponding values for `COc1ccc2oc3cc(OCCCCCO[N+](=O)[O-])cc(O)c3c(=O)c2c1` are 9.29 µM, 33.3 µM and 53.4 µM.
The corresponding values for `O=c1c2cc(Cl)ccc2oc2cc(OCCCCO[N+](=O)[O-])cc(O)c12` are 11.2 µM, 10.1 µM and 42.9 µM.
The matching figures for `COc1cc2oc3cc(OCCCCCO[N+](=O)[O-])cc(O)c3c(=O)c2cc1OC`: 45.6 µM, 6.35 µM and over 200 µM.
Take `COc1cccc2oc3cc(OCCCCO[N+](=O)[O-])cc(O)c3c(=O)c12`: the half-inhibitory concentration (IC50) in the test on MDA-MB-231 came to 6.25 µM; in the test on HepG2, 10.2 µM; with MCF7 it was 63 µM.
In the case of `O=c1c2ccc(O)cc2oc2cc(OCCO[N+](=O)[O-])cc(O)c12`, the IC50 was 108 µM in the test on MDA-MB-231, 160 µM in the test with HepG2 and over 200 µM with MCF7.
For `COc1ccc2oc3cc(O)cc(O)c3c(=O)c2c1`, the figures for the half-inhibitory concentration (IC50) in the test with MDA-MB-231, in the test on HepG2 and with MCF7 were over 200 µM, 93.2 µM and over 200 µM, respectively.
`O=c1c2ccccc2oc2cc(OCCCO[N+](=O)[O-])cc(O)c12`: the half-inhibitory concentration (IC50) is 83.9 µM in the test with MDA-MB-231, 12.3 µM in the test with HepG2 and over 200 µM with MCF7.
As for `O=c1c2cc(Cl)ccc2oc2cc(OCCO[N+](=O)[O-])cc(O)c12`, the half-inhibitory concentration (IC50) stood at 33.3 µM with MDA-MB-231, 43.1 µM with HepG2 and 74.3 µM with MCF7.
Regarding `O=[N+]([O-])OCCCCCCO`, the values for the IC50 with MDA-MB-231, in the test with HepG2 and in the test with MCF7 were 90.4 µM, 52.6 µM and 89.7 µM, respectively.
The corresponding values for `O=c1c2cc(O)ccc2oc2cc(OCCCCO[N+](=O)[O-])cc(O)c12` are 92.6 µM, 22.3 µM and 143 µM.
Consider `COc1cc2oc3cc(OCCCCCCO[N+](=O)[O-])cc(O)c3c(=O)c2cc1OC`, for which the IC50 with MDA-MB-231 was 19.8 µM; in the test on HepG2, 1.83 µM; in the test on MCF7, 98.2 µM.
Take `O=c1c2ccc(O)cc2oc2cc(OCCCO[N+](=O)[O-])cc(O)c12`: the values for the IC50 in the test with MDA-MB-231, with HepG2 and with MCF7 were 82.7 µM, 116 µM and over 200 µM, respectively.
As for `COc1cccc2oc3cc(OCCCCCCO[N+](=O)[O-])cc(O)c3c(=O)c12`, the half-maximal inhibitory concentration (IC50) in the test with MDA-MB-231 was found to be 0.45 µM; in the test on HepG2 it was 0.61 µM; in the test with MCF7, 31 µM.
As for `O=c1c2cc(Br)ccc2oc2cc(OCCCCCCCO[N+](=O)[O-])cc(O)c12`, the results for the IC50 with MDA-MB-231, with HepG2 and with MCF7 were 9.27 µM, 7.28 µM and 35.9 µM, respectively.
On to `Cc1ccc2c(=O)c3c(O)cc(OCCCCCCO[N+](=O)[O-])cc3oc2c1`, for which the 50% inhibitory concentration (IC50) turned out to be 10.3 µM with MDA-MB-231, 1.28 µM with HepG2 and 35.1 µM in the test on MCF7.
The matching figures for `COc1cc2oc3cc(OCCCCCCCO[N+](=O)[O-])cc(O)c3c(=O)c2cc1OC`: 67.6 µM, 13.2 µM and 163 µM.
Consider `O=[N+]([O-])OCCCCO`, for which the IC50 in the test with MDA-MB-231 was 157 µM; in the test on HepG2, 90.8 µM; with MCF7, over 200 µM.
Turning to `COc1ccc2oc3cc(OCCCO[N+](=O)[O-])cc(O)c3c(=O)c2c1`, the results for the IC50 in the test with MDA-MB-231, with HepG2 and in the test on MCF7 were 35.6 µM, 63.5 µM and 98.2 µM, respectively.
The corresponding values for `COc1cccc2oc3cc(OCCCCCO)cc(O)c3c(=O)c12` are 41.1 µM, 23.7 µM and over 200 µM.
The matching figures for `COc1cccc2oc3cc(OCCCCCCCO[N+](=O)[O-])cc(O)c3c(=O)c12`: 4.29 µM, 5.26 µM and 53.5 µM.
Turning to `O=c1c2ccccc2oc2cc(OCCO[N+](=O)[O-])cc(O)c12`, the IC50 in the test with MDA-MB-231 is 90.9 µM; in the test with HepG2 it was 20.5 µM; in the test on MCF7, over 200 µM.
As for `O=c1c2ccc(O)cc2oc2cc(OCCCCO[N+](=O)[O-])cc(O)c12`, the figures for the IC50 with MDA-MB-231, in the test on HepG2 and with MCF7 were 66.7 µM, 96 µM and over 200 µM, respectively.
As for `Cc1ccc2c(=O)c3c(O)cc(OCCCCCO[N+](=O)[O-])cc3oc2c1`, the 50% inhibitory concentration (IC50) with MDA-MB-231 amounted to 30.7 µM; with HepG2 it was 2.95 µM; in the test with MCF7, 39.5 µM.
Take `COc1cccc2oc3cc(OCCO[N+](=O)[O-])cc(O)c3c(=O)c12`: the IC50 in the test with MDA-MB-231 was 11.2 µM; in the test on HepG2, 21.5 µM; in the test with MCF7, 104 µM.
As to `COc1ccc2oc3cc(OCCCCCCCO[N+](=O)[O-])cc(O)c3c(=O)c2c1`, the 50% inhibitory concentration (IC50) with MDA-MB-231 is 16.2 µM; with HepG2, 42.1 µM; in the test with MCF7, 71.2 µM.
Consider `O=c1c2cc(Cl)ccc2oc2cc(OCCCCCCO[N+](=O)[O-])cc(O)c12`, for which the values for the IC50 in the test with MDA-MB-231, with HepG2 and with MCF7 were 9.74 µM, 6.03 µM and 13.3 µM, respectively.
The matching figures for `Cc1ccc2c(=O)c3c(O)cc(OCCCCCCCO[N+](=O)[O-])cc3oc2c1`: 55.9 µM, 8.76 µM and 42.7 µM.
As to `O=c1c2ccc(O)cc2oc2cc(OCCCCCO[N+](=O)[O-])cc(O)c12`, the values for the 50% inhibitory concentration (IC50) in the test on MDA-MB-231, in the test on HepG2 and in the test on MCF7 were 41.4 µM, 62.3 µM and 112 µM, respectively.
As to `O=[N+]([O-])OCCCO` [ABRUCOMSTAT], the IC50 in the test on MDA-MB-231 is over 200 µM; in the test on HepG2, 111 µM; in the test on MCF7 it was over 200 µM.
